Experiments:
PI3K alpha = PI3K alpha (Homo sapiens (Human), UniProt P42336); assay: Enzymatic PI3K alpha isoform inhibition (lipid kinase activity, Kinase-Glo luminescence); type: biochemical; conditions: Enzymatic assay
How it was run: (§1)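 ATP-depletion format: 10 nM PI3K with 5 μg/mL phosphatidylinositol and 2 μM ATP, run to ~50% ATP consumption, then Kinase-Glo added and remaining ATP read by luminescence after 5 min. IC50 from 4-parameter logistic fit, typically over 8 concentrations 10–0.003 μM.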

PI3K delta = PI3K delta (Homo sapiens (Human), UniProt O00329); assay: Enzymatic PI3K delta isoform inhibition (lipid kinase activity, Kinase-Glo luminescence); type: biochemical; conditions: Enzymatic assay
Chain of PI3K delta (O00329 other isoform, or with tags, fused parts or gaps linker GGGGGG): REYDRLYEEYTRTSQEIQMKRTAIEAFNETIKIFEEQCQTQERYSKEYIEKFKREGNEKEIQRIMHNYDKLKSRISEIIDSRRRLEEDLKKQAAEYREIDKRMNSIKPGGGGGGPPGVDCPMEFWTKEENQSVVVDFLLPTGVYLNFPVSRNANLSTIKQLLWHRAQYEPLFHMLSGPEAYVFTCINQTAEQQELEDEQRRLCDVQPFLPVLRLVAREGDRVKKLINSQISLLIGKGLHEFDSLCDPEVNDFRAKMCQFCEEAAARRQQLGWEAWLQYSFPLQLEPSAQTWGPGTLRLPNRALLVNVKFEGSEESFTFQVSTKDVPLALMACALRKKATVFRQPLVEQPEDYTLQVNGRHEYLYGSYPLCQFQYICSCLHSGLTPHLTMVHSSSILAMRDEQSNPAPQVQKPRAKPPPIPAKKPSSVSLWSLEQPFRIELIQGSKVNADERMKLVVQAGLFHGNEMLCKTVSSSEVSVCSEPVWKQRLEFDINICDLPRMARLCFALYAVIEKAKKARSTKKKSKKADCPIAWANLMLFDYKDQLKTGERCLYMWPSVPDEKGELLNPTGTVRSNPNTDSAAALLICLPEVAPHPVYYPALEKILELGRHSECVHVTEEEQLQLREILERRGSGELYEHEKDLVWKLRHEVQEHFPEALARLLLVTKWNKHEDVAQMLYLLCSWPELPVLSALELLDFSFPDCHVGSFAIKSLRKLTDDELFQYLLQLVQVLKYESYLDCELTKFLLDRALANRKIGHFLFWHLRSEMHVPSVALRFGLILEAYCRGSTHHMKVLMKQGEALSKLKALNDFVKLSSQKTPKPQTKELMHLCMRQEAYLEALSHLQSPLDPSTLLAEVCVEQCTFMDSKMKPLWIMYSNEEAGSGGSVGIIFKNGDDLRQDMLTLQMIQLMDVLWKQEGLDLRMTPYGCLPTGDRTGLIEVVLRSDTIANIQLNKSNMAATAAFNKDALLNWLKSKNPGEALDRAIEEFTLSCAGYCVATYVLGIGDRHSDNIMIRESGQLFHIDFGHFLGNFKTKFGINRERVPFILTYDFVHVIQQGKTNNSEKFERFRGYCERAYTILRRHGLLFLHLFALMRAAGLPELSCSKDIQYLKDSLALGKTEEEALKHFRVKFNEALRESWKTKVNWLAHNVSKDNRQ
How it was run: as §1

Chain of PI3K alpha (P42336 other isoform, or with tags, fused parts or gaps): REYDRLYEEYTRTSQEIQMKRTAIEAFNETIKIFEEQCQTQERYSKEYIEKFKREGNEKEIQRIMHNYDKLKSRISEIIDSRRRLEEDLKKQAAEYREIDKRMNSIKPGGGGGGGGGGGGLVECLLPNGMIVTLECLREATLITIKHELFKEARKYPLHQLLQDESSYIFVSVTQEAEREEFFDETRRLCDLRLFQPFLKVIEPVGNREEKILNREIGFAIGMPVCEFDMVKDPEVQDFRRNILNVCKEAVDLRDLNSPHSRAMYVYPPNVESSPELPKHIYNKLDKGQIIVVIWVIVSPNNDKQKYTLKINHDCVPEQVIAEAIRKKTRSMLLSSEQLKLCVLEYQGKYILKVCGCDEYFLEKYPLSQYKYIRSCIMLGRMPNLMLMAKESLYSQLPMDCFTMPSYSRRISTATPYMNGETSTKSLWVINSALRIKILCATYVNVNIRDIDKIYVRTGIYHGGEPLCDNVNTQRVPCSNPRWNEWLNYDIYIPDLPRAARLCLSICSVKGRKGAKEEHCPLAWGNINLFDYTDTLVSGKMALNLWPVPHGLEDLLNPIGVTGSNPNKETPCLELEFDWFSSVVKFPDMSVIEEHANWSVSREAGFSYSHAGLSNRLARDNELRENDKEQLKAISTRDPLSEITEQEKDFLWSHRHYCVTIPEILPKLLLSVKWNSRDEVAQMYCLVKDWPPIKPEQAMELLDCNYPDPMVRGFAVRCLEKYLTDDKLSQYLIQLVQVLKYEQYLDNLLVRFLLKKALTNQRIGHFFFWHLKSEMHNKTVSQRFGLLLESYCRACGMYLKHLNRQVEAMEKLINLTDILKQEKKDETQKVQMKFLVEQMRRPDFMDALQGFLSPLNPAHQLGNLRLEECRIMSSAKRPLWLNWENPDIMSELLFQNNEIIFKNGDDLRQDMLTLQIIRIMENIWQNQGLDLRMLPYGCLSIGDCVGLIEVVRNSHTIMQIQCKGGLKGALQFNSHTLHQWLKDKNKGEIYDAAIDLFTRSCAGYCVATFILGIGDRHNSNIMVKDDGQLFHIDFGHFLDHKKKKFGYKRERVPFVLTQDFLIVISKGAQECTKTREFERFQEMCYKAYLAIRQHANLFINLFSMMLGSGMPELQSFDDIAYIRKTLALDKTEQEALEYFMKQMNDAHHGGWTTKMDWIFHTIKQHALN

Row | Compound | IC50 (PI3K alpha) | IC50 (PI3K delta)
1 | CCC(=O)N1CC[C@H](Oc2ccc3c(c2)N(c2ccc(OC)c(S(=O)(=O)N(C)OC)c2)CCO3)C1 [Example A29, 2,N-Dimethoxy-N-methyl-5-[6-((S)-1-propionyl-pyrrolidin-3-yloxy)-2,3-dihydro-benzo[1,4]oxazin-4-yl]-benzenesulfonamide] | 2730 nM | 42 nM
2 | Cc1cc(N2CCOc3ccc(O[C@H]4CCN(C(=O)C5CCOC(C)(C)C5)C4)cc32)cnc1S(C)(=O)=O (stereo partly drawn) [Example B26, (2,2-Dimethyl-tetrahydro-pyran-4-yl)-{(S)-3-[4-(6-methanesulfonyl-5-methyl-pyridin-3-yl)-3,4-dihydro-2H-benzo[1,4]oxazin-6-yloxy]-pyrrolidin-1-yl}-methanone] | 281 nM | < 9 nM
3 | CS(=O)(=O)c1ncc(N2CCOc3ccc(O[C@H]4CCN(C(=O)[C@@H]5CCOC5)C4)cc32)cc1C(F)F [Example B75, {(S)-3-[4-(5-Difluoromethyl-6-methanesulfonyl-pyridin-3-yl)-3,4-dihydro-2H-benzo[1,4]oxazin-6-yloxy]-pyrrolidin-1-yl}-(R)-tetrahydro-furan-3-yl-methanone] | 211 nM | 11 nM
4 | Cc1cc(N2CCOc3ccc(O[C@H]4CCN(C(=O)c5cncnc5)C4)cc32)cnc1S(C)(=O)=O [Example B23, {(S)-3-[4-(6-Methanesulfonyl-5-methyl-pyridin-3-yl)-3,4-dihydro-2H-benzo[1,4]oxazin-6-yloxy]-pyrrolidin-1-yl}-pyrimidin-5-yl-methanone] | 1000 nM | 28 nM
5 | Cc1cc(N2CCOc3ccc(O[C@H]4CCN(C(=O)C5COCCO5)C4)cc32)cnc1S(C)(=O)=O (stereo partly drawn) [Example B36, [1,4]Dioxan-2-yl-{(S)-3-[4-(6-methanesulfonyl-5-methyl-pyridin-3-yl)-3,4-dihydro-2H-benzo[1,4]oxazin-6-yloxy]-pyrrolidin-1-yl}-methanone] | 801 nM | < 3 nM
6 | CS(=O)(=O)c1ncc(N2CCOc3ccc(O[C@H]4CCN(C(=O)C5CCOCC5)C4)cc32)cc1CF [Example B71, {(S)-3-[4-(5-Fluoromethyl-6-methanesulfonyl-pyridin-3-yl)-3,4-dihydro-2H-benzo[1,4]oxazin-6-yloxy]-pyrrolidin-1-yl}-(tetrahydro-pyran-4-yl)-methanone] | 360 nM | 5.5 nM
7 | CS(=O)(=O)c1ncc(N2CCOc3ccc(O[C@H]4CCN(C(=O)C5CCOCC5)C4)cc32)cc1C(F)(F)F [Example B69, {(S)-3-[4-(6-Methanesulfonyl-5-trifluoromethyl-pyridin-3-yl)-3,4-dihydro-2H-benzo[1,4]oxazin-6-yloxy]-pyrrolidin-1-yl}-(tetrahydro-pyran-4-yl)-methanone] | 189 nM | 5 nM
8 | CS(=O)(=O)c1ncc(N2CCOc3ccc(O[C@H]4CCN(C(=O)[C@H]5CCOC5)C4)cc32)cc1C(F)F [Example B76, {(S)-3-[4-(5-Difluoromethyl-6-methanesulfonyl-pyridin-3-yl)-3,4-dihydro-2H-benzo[1,4]oxazin-6-yloxy]-pyrrolidin-1-yl}-(S)-tetrahydro-furan-3-yl-methanone] | 399 nM | 61 nM
9 | COc1cc(N2CCOc3ccc(O[C@H]4CCN(C(=O)C5CCOCC5)C4)cc32)cnc1Cl [Example B54, {(S)-3-[4-(6-Chloro-5-methoxy-pyridin-3-yl)-3,4-dihydro-2H-benzo[1,4]oxazin-6-yloxy]-pyrrolidin-1-yl}-(tetrahydro-pyran-4-yl)-methanone] | 756 nM | 11 nM
10 | Cc1cc(N2CCOc3cnc(O[C@H]4CCN(C(=O)C5CC5)C4)cc32)cnc1OC(F)F [Example E11, Cyclopropyl-{(S)-3-[1-(6-difluoromethoxy-5-methyl-pyridin-3-yl)-2,3-dihydro-1H-pyrido[3,4-b][1,4]oxazin-7-yloxy]-pyrrolidin-1-yl}-methanone] | 377 nM | < 3 nM
11 | COc1ncc(N2CCOc3cnc(O[C@H]4CCN(C(=O)C5CCS(=O)(=O)CC5)C4)cc32)cc1C(F)(F)F [Example E6, (1,1-Dioxo-hexahydro-1lambda*6*-thiopyran-4-yl)-{(S)-3-[1-(6-methoxy-5-trifluoromethyl-pyridin-3-yl)-2,3-dihydro-1H-pyrido[3,4-b][1,4]oxazin-7-yloxy]-pyrrolidin-1-yl}-methanone] | 341 nM | 9 nM
12 | CCC(=O)N1CC[C@H](Oc2ccc3c(c2)N(c2cncc(S(=O)(=O)N4CCOCC4)c2)CCO3)C1 [Example A26, 1-((S)-3-{4-[5-(Morpholine-4-sulfonyl)-pyridin-3-yl]-3,4-dihydro-2H-benzo[1,4]oxazin-6-yloxy}-pyrrolidin-1-yl)-propan-1-one] | 152 nM | 22 nM
13 | COc1cc(N2CCOc3ccc(O[C@H]4CCN(C(=O)C5CCOCC5)C4)cc32)ccn1 [Example A22, {(S)-3-[4-(2-Methoxy-pyridin-4-yl)-3,4-dihydro-2H-benzo[1,4]oxazin-6-yloxy]-pyrrolidin-1-yl}-(tetrahydro-pyran-4-yl)-methanone] | 757 nM | 21 nM

Continued, values first:

Row | IC50 (PI3K alpha) | IC50 (PI3K delta) | Compound
14 | 3850 nM | 65 nM | CCC(=O)N1CC[C@H](Oc2ccc3c(c2)N(c2cnc(Cl)c(OC)c2)CCO3)C1 [Example B55, 1-{(S)-3-[4-(6-Chloro-5-methoxy-pyridin-3-yl)-3,4-dihydro-2H-benzo[1,4]oxazin-6-yloxy]-pyrrolidin-1-yl}-propan-1-one]
15 | 519 nM | 41 nM | COc1ncc(N2CCOc3ccc(O[C@H]4CCN(C(=O)c5cc[nH]c(=O)c5)C4)cc32)cc1C#N [Example D21, 2-Methoxy-5-{6-[(S)-1-(2-oxo-1,2-dihydro-pyridine-4-carbonyl)-pyrrolidin-3-yloxy]-2,3-dihydro-benzo[1,4]oxazin-4-yl}-nicotinonitrile]
16 | 385 nM | 62 nM | COc1ncc(N2CCOc3ccc(O[C@H]4CCN(C(=O)CC(C)C)C4)cc32)cc1C#N [Example D10, 2-Methoxy-5-{6-[(S)-1-(3-methyl-butyryl)-pyrrolidin-3-yloxy]-2,3-dihydro-benzo[1,4]oxazin-4-yl}-nicotinonitrile]
17 | 616 nM | 11 nM | COc1cc(N2CCOc3ccc(O[C@H]4CCN(C(=O)C5CCS(=O)(=O)C5)C4)cc32)cnc1OC (single isomer, unassigned) [Example H9]
18 | 1640 nM | 26 nM | CCOc1ncc(N2CCOc3ccc(O[C@H]4CCN(C(=O)C5CCOCC5)C4)cc32)cc1C [Example B2, {(S)-3-[4-(6-Ethoxy-5-methyl-pyridin-3-yl)-3,4dihydro-2H-benzo[1,4]oxazin-6-yloxy]-pyrrolidin-1-yl}-(tetrahydro-pyran-4-yl)-methanone]
19 | 353 nM | 23 nM | COc1ncc(N2CCOc3ccc(O[C@H]4CCN(C(=O)CS(C)(=O)=O)C4)cc32)cc1C#N [Example C11, 5-{6-[(S)-1-(2-Methanesulfonyl-acetyl)-pyrrolidin-3-yloxy]-2,3-dihydro-benzo[1,4]oxazin-4-yl}-2-methoxy-nicotinonitrile]
20 | 1230 nM | 83 nM | CCC(=O)N1CC[C@H](Oc2ccc3c(c2)N(c2cnc(OC)c(OC)c2)CCO3)C1 [Example B4, 1-{(S)-3-[4-(5,6-Dimethoxy-pyridin-3-yl)-3,4-dihydro-2H-benzo[1,4]oxazin-6-yloxy]-pyrrolidin-1-yl}-propan-1-one]

— patent US9539260B2, “Dihydro-benzo-oxazine and dihydro-pyrido-oxazine derivatives” (Novartis AG, priority 2012, dated 2017)
